In patent US5464796A, “7-isoindolinyl-quinolone-carboxylic acid derivatives” (Bayer Aktiengesellschaft, priority 1991, dated 1995):
In brackets after ≈: the same amount, converted by molar mass.

Experiments:
Assay in all cases: MIC by series dilution on Iso-Sensitest agar
Staphyloccus aureus = assay type: cell-based, Staphylococcus aureus; conditions: 37° C., about 20 hours, 10^4 colony-forming particles per spot; for MIC: Staphylococcus aureus, 20 h
Experimental: (§1) The minimum inhibitory concentrations (MIC) were determined by series dilution methods on Iso-Sensitest agar (Oxoid). A series of agar plates each containing active compound concentrations decreasing by twofold dilution each time were prepared for each test substance. The agar plates were inoculated with a Multipoint inoculator (Denley). Overnight cultures of the pathogens, which were first diluted so that each inoculum spot contained about 10^4 colony-forming particles, were used for the inoculation. The inoculated agar plates were incubated at 37° C. and the germ growth was read off after about 20 hours. The MIC value (μg/ml) indicates the lowest active compound concentration at which no growth was to be detected with the naked eye.
(§2) The MIC values of some of the compounds according to the invention are shown in the following table in comparison with 7-(4-amino-1,3-dihydro-isoindol-2-yl)-1-cyclopropyl-6,8-difluoro-1,4-dihydro-4-oxo-3-quinolinecarboxylic acid (EP 343,560, Example 2).

E. coli = assay type: cell-based, Escherichia coli; conditions: 37° C., about 20 hours, 10^4 colony-forming particles per spot; for MIC: Escherichia coli, 20 h
Experimental: as §1, §2

Pseudomonas aeruginasa = assay type: cell-based, Pseudomonas aeruginosa; conditions: strain Walter, 37° C., about 20 hours, 10^4 colony-forming particles per spot; for MIC: Pseudomonas, 20 h
Experimental: as §1, §2

Enterocococus faecalis = assay type: cell-based, Enterococcus faecalis; conditions: 37° C., about 20 hours, 10^4 colony-forming particles per spot; for MIC: Enterococcus faecalis, 20 h
Experimental: as §1, §2

Morganella morg. = assay type: cell-based; conditions: strain 932, 37° C., about 20 hours, 10^4 colony-forming particles per spot; for MIC: Morganella, 20 h
Experimental: as §1, §2

Providencia spp. = assay type: cell-based; conditions: strain 12012, 37° C., about 20 hours, 10^4 colony-forming particles per spot; for MIC: Providencia, 20 h
Experimental: as §1, §2

Klebsiella sp. = assay type: cell-based; conditions: strain 8085, 37° C., about 20 hours, 10^4 colony-forming particles per spot; for MIC: Klebsiella
Experimental: as §1, §2

SMILES	MIC values (Staphyloccus aureus; strain 133)	MIC values (Staphyloccus aureus; strain 1756)	MIC values (E. coli; strain 455/7)	MIC values (E. coli; strain Neumann)	MIC values (Pseudomonas aeruginasa)	MIC values (Enterocococus faecalis; strain 9790)	MIC values (Enterocococus faecalis; strain 27101)	MIC values (Morganella morg.)	MIC values (Providencia spp.)	MIC values (Klebsiella sp.)	MIC (Staphyloccus aureus; strain 133)	MIC (Staphyloccus aureus; strain 1756)	MIC (E. coli; strain 455/7)	MIC (E. coli; strain Neumann)	MIC (Pseudomonas aeruginasa)	MIC (Enterocococus faecalis; strain 9790)	MIC (Enterocococus faecalis; strain 27101)	MIC (Morganella morg.)	MIC (Providencia spp.)	MIC (Klebsiella sp.)
CNC1C=CCC2CN(c3c(F)cc4c(=O)c(C(=O)O)cn(C5CC5)c4c3Cl)CC21 (centres unmarked) [9 B]	0,03 μg/ml	0,03 μg/ml	0,5 μg/ml	0,02 μg/ml	1 µg/mL (≈ 2.32 µM)	0,02 μg/ml	0,03 μg/ml	0,06 μg/ml	0,06 μg/ml	0,03 μg/ml										
CNC1C=CCC2CN(c3c(F)cc4c(=O)c(C(=O)O)cn(C5CC5)c4c3Cl)CC21 (centres unmarked) [Example 3, 8-chloro-1-cyclopropyl-6-fluoro-1,4-dihydro-7-(4-methylamino-1,3,3a,4,7,7a-hexahydro-isoindol-2-yl)-4-oxo-3-quinolinecarboxylic acid]											0.02 µg/mL (≈ 0.0463 µM)	0.02 µg/mL (≈ 0.0463 µM)	0.25 µg/mL (≈ 0.579 µM)	0.02 µg/mL (≈ 0.0463 µM)	0.5 µg/mL (≈ 1.16 µM)	0.02 µg/mL (≈ 0.0463 µM)	0.02 µg/mL (≈ 0.0463 µM)	0.03 µg/mL (≈ 0.0695 µM)	0.03 µg/mL (≈ 0.0695 µM)	0.03 µg/mL (≈ 0.0695 µM)
CNC1C=CCC2CN(c3nc4c(cc3F)c(=O)c(C(=O)O)cn4C3CC3)CC21.Cl (centres unmarked) [Example 10, 1-cyclopropyl-6-fluoro-1,4-dihydro-7-(4-methylamino-1,3,3a,4,7,7a-hexahydroisoindol-2-yl)-4-oxo-1,8-naphthyridine-3-carboxylic acid hydrochloride]											0.06 µg/mL	0.06 µg/mL	8 µg/mL	0.06 µg/mL	4 µg/mL	0.25 µg/mL	0.25 µg/mL	0.25 µg/mL	0.25 µg/mL	0.13 µg/mL
CNC1C=CCC2CN(c3cc4c(cc3F)c(=O)c(C(=O)O)cn4C3CC3)CC21 (centres unmarked) [Example 2]											0.02 µg/mL (≈ 0.0503 µM)	0.02 µg/mL (≈ 0.0503 µM)	2 µg/mL (≈ 5.03 µM)	0.03 µg/mL (≈ 0.0755 µM)	2 µg/mL (≈ 5.03 µM)	0.06 µg/mL (≈ 0.151 µM)	0.06 µg/mL (≈ 0.151 µM)		0.13 µg/mL (≈ 0.327 µM)	
CNC1C=CCC2CN(c3c(F)cc4c(=O)c(C(=O)O)cn(C5CC5)c4c3F)CC21 (centres unmarked) [Example 1, 1-cyclopropyl-6,8-difluoro-1,4-dihydro-7-(4-methylamino-1,3,3a,4,7,7a-hexahydro-isoindol-2-yl)-4-oxo-3-quinolinecarboxylic acid]											0.02 µg/mL (≈ 0.0481 µM)	0.02 µg/mL (≈ 0.0481 µM)	0.5 µg/mL (≈ 1.2 µM)	0.02 µg/mL (≈ 0.0481 µM)	1 µg/mL (≈ 2.41 µM)	0.03 µg/mL (≈ 0.0722 µM)	0.03 µg/mL (≈ 0.0722 µM)	0.06 µg/mL (≈ 0.144 µM)	0.06 µg/mL (≈ 0.144 µM)	0.06 µg/mL (≈ 0.144 µM)
CNC1C=CC(C)C2CN(c3cc4c(cc3F)c(=O)c(C(=O)O)cn4C3CC3)CC12 (centres unmarked) [Example 5]											0.02 µg/mL (≈ 0.0486 µM)	0.02 µg/mL (≈ 0.0486 µM)	2 µg/mL (≈ 4.86 µM)	0.06 µg/mL (≈ 0.146 µM)	2 µg/mL (≈ 4.86 µM)	0.03 µg/mL (≈ 0.0729 µM)	0.03 µg/mL (≈ 0.0729 µM)	0.06 µg/mL (≈ 0.146 µM)	0.13 µg/mL (≈ 0.316 µM)	0.06 µg/mL (≈ 0.146 µM)
Nc1cccc2c1CN(c1c(F)cc3c(=O)c(C(=O)O)cn(C4CC4)c3c1F)C2 [Ref, 7-(4-amino-1,3-dihydro-isoindol-2-yl)-1-cyclopropyl-6,8-difluoro-1,4-dihydro-4-oxo-3-quinolinecarboxylic acid, reference compound]											0.03 µg/mL (≈ 0.0755 µM)	0.03 µg/mL (≈ 0.0755 µM)	128 µg/mL (≈ 322 µM)	0.5 µg/mL (≈ 1.26 µM)	128 µg/mL (≈ 322 µM)	1 µg/mL (≈ 2.52 µM)	0.5 µg/mL (≈ 1.26 µM)	1 µg/mL (≈ 2.52 µM)	1 µg/mL (≈ 2.52 µM)	4 µg/mL (≈ 10.1 µM)
CNC1C=CCC2CN(c3cc4c(c(C)c3F)c(=O)c(C(=O)O)cn4C3CC3)CC21 (centres unmarked) [Example 4]											0.03 µg/mL (≈ 0.0729 µM)	0.03 µg/mL (≈ 0.0729 µM)	16 µg/mL (≈ 38.9 µM)	0.13 µg/mL (≈ 0.316 µM)	16 µg/mL (≈ 38.9 µM)	0.13 µg/mL (≈ 0.316 µM)	0.13 µg/mL (≈ 0.316 µM)	0.5 µg/mL (≈ 1.22 µM)	0.25 µg/mL (≈ 0.608 µM)	0.25 µg/mL (≈ 0.608 µM)
CNC1C=CCC2CN(c3nc4c(cc3F)c(=O)c(C(=O)O)cn4-c3ccc(F)cc3F)CC21 (centres unmarked) [11 B]											0.06 µg/mL (≈ 0.128 µM)	0.06 µg/mL (≈ 0.128 µM)	16 µg/mL (≈ 34 µM)	0.25 µg/mL (≈ 0.531 µM)	8 µg/mL (≈ 17 µM)	0.25 µg/mL (≈ 0.531 µM)	0.25 µg/mL (≈ 0.531 µM)	0.5 µg/mL (≈ 1.06 µM)	0.5 µg/mL (≈ 1.06 µM)	0.5 µg/mL (≈ 1.06 µM)
CNC1C=CC(C)C2CN(c3c(F)cc4c(=O)c(C(=O)O)cn(C5CC5)c4c3F)CC12 (centres unmarked) [Example 6]											0.02 µg/mL (≈ 0.0466 µM)	0.02 µg/mL (≈ 0.0466 µM)	1 µg/mL (≈ 2.33 µM)	0.03 µg/mL (≈ 0.0699 µM)	2 µg/mL (≈ 4.66 µM)	0.06 µg/mL (≈ 0.14 µM)	0.06 µg/mL (≈ 0.14 µM)	0.06 µg/mL (≈ 0.14 µM)	0.13 µg/mL (≈ 0.303 µM)	0.06 µg/mL (≈ 0.14 µM)
